Here are results for two compounds from PMC6324689 (Oncotarget, 2018).

For data set [1] the following is noted: cited from earlier work.
Data set [2] has as its target T1, BCRP (Homo sapiens, UniProt Q9UNQ0).
T1 construct: host or cells: MDCKII
T1 sequence (Q9UNQ0 1-655): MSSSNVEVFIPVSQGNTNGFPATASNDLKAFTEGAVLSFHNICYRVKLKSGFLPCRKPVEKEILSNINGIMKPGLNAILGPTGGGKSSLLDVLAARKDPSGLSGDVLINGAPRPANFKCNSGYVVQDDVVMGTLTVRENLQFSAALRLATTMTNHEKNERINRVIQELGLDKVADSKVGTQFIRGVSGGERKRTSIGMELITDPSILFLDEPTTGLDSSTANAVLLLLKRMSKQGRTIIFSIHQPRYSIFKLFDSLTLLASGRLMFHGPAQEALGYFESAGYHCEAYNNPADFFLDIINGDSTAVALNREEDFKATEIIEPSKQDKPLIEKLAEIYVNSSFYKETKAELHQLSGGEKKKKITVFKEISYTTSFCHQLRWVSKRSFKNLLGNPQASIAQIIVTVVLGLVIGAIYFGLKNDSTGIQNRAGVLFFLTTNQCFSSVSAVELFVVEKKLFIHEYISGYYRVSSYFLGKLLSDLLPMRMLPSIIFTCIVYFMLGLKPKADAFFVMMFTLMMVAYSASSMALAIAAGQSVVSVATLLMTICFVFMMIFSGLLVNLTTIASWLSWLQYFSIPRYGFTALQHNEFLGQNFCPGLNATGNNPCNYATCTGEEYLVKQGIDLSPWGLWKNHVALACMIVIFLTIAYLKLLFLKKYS
The data set is described as follows: MDCKII-BCRP monolayer bidirectional transport assay. The format is in vitro ADME. The settings on record: MDCKII-BCRP cells; for Papp A→B at 120 min, 1 μM / Papp B→A at 120 min, 1 μM / Papp A→B at 120 min, 10 μM / Papp B→A at 120 min, 10 μM / Papp A→B at 120 min, 100 μM / Papp B→A at 120 min, 100 μM: human. The protocol:
The monolayer assays were performed using parental and BCRP or MDR1 transfected MDCKII cell monolayers. […] Transfected and parental MDCKII cells were cultured on the inserts with 100 μL medium per well on the apical side and 25 mL in a single-well receiver tray for all 24 wells on the basolateral side, for 96 hours. Medium was changed 24 hours before the experiment. Permeability incubations were carried out in Hank’s Buffered Salt Solution (HBSS) at 37 ± 1°C. […] LY samples (100 μL from basolateral wells) were analyzed by measuring fluorescence with the following wavelengths: excitation – 430 nm, emission – 520 nm. Trans-epithelial electric resistance (TEER) of each well was measured to confirm the confluency of the monolayers after the experiments. The assays were conducted according to the actual SOLVO MDCKII-BCRP and MDCKII-MDR1 monolayer assay protocols (SOP). […] Cells were pre-incubated in assay buffer for 10 minutes to allow cells adjusting to the medium. Assay buffer containing the test articles (separately) at three concentrations (1 μM, 10 μM and 100 μM) was then added to the appropriate apical (100 μL) or basolateral (600 μL) chamber. […] The prazosin or digoxin efflux ratio was determined as a positive control for BCRP or MDR1 function, respectively. […] Bidirectional transport of the test articles in control, MDCKII-BCRP and MDCKII-MDR1 cells was determined by LC-MS/MS.

Where two headings read alike, the source gives them in different places.

In general, Papp A→B refers to how fast a substance crosses the layer from the apical side. Low values mean poor permeation, high ones ready permeation. Usually Papp B→A stands for the apparent permeability from the basolateral to the apical side of a cell layer. As to `O=C(c1cc(Cc2n[nH]c(=O)c3ccccc23)ccc1F)N1CCN(C(=O)C2CC2)CC1` [Olaparib], the “Biopharmaceutical Classification System (BCS) class” value in data set [1] (low permeability, very low solubility) is given as “Class IV”. In data set [2] (1 μM), the “Net ER” value was determined as 32.97 ± 9.58; the Papp A→B at 120 min, 1 μM amounted to 1.12 ± 1.04 ×10⁻⁶ cm/s; the Papp B→A at 120 min, 1 μM is 41.4 ± 4.35 ×10⁻⁶ cm/s. In data set [2] (10 μM), the “Net ER” value turned out to be 71.22 ± 14.97; the Papp A→B at 120 min, 10 μM stood at 0.59 ± 0.33 ×10⁻⁶ cm/s; the Papp B→A at 120 min, 10 μM stood at 44.1 ± 2.65 ×10⁻⁶ cm/s. Further, in data set [2] (100 μM), the “Net ER” value stood at 50.54 ± 13.65; the Papp A→B at 120 min, 100 μM was 0.9 ± 0.22 ×10⁻⁶ cm/s; the Papp B→A at 120 min, 100 μM was 46.8 ± 3.4 ×10⁻⁶ cm/s.
As to `NC(=O)c1cccc2cn(-c3ccc([C@@H]4CCCNC4)cc3)nc12` [Niraparib, 2-{4-[(3S)-piperidin-3-yl]phenyl}-2H-indazole-7-carboxamide], the BCS class entry in data set [1] (administered at 200 mg in humans) was “Class I”. Besides, the BCS class result in data set [1] (administered at 300 mg in humans) is given as “Class II”. In data set [2] (1 μM), the “Net ER” value is 8.86 ± 3.28; the Papp A→B at 120 min, 1 μM was 4.83 ± 2.29 ×10⁻⁶ cm/s; the Papp B→A at 120 min, 1 μM was 52.1 ± 3.09 ×10⁻⁶ cm/s. Moreover, in data set [2] (10 μM), the “Net ER” value stood at 24.73 ± 6.47; the Papp A→B at 120 min, 10 μM amounted to 2.27 ± 0.7 ×10⁻⁶ cm/s; the Papp B→A at 120 min, 10 μM worked out at 59.6 ± 3.65 ×10⁻⁶ cm/s. For the same compound, in data set [2] (100 μM), the “Net ER” value came out at 9.58 ± 1.70; the Papp A→B at 120 min, 100 μM is 4.1 ± 0.13 ×10⁻⁶ cm/s; the apparent permeability from basolateral to apical (Papp B→A) at 120 min, 100 μM worked out at 43.1 ± 2.62 ×10⁻⁶ cm/s.
